Common to all, as to test: relative viability (nuclei count vs DMSO), 5 days (fraction); higher = more cells survive
Compound in the assay “Sulindac + Navitoclax”: CC1=C(CC(=O)O)c2cc(F)ccc2/C1=C\c1ccc([S+](C)[O-])cc1 [Sulindac] + CC1(C)CCC(c2ccc(Cl)cc2)=C(CN2CCN(c3ccc(C(=O)NS(=O)(=O)c4ccc(N[C@H](CCN5CCOCC5)CSc5ccccc5)c(S(=O)(=O)C(F)(F)F)c4)cc3)CC2)C1 [Navitoclax] (partner 0.5 µM)
An outline of the steps:
(§1)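 Each reported value is a median over duplicate plates. It expresses relative viability: treated-well nuclei count divided by vehicle-well nuclei count. Lung cancer cell lines in 1536-well plates were dosed by pin tool a day after seeding, alone with one drug or with a fixed anchor-drug dose plus five library-drug doses (not always all listed) in √10 steps, and nuclei were counted after 5 days.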

Compound in assay [1]: CN[C@@H]1C[C@H]2O[C@@](C)([C@@H]1OC)n1c3ccccc3c3c4c(c5c6ccccc6n2c5c31)C(=O)NC4 [Staurosporine] + CS(=O)(=O)N1CCN(Cc2cc3nc(-c4cccc5[nH]ncc45)nc(N4CCOCC4)c3s2)CC1 [Pictilisib] (partner 1 µM)
An outline of the steps: as §1

Compound in the assay “Sulindac + Phenformin”: CC1=C(CC(=O)O)c2cc(F)ccc2/C1=C\c1ccc([S+](C)[O-])cc1 [Sulindac] + N=C(N)NC(=N)NCCc1ccccc1 [Phenformin] (partner 250 µM)
Summed up:
as §1

Compound in the assay “Sulindac + Tozasertib”: CC1=C(CC(=O)O)c2cc(F)ccc2/C1=C\c1ccc([S+](C)[O-])cc1 [Sulindac] + Cc1cc(Nc2cc(N3CCN(C)CC3)nc(Sc3ccc(NC(=O)C4CC4)cc3)n2)n[nH]1 [Tozasertib] (partner 0.1 µM)
An outline of the steps: as §1

UMC-11: the relative viability was 0.3 with Sulindac + Navitoclax (first compound 0.08 µM); 0.305 with Sulindac + Navitoclax (first compound 0.253 µM); 0.309 with Sulindac + Navitoclax (first compound 0.8 µM); 0.292 with Sulindac + Navitoclax (first compound 2.53 µM); 0.38 in the assay with Sulindac + Navitoclax (first compound 8 µM); 0.841 in assay [1] (first compound 0.005 µM). In addition, the relative viability in assay [1] (first compound 0.01581 µM) came to 0.115; in assay [1] (first compound 0.05 µM), 0.207; in assay [1] (first compound 0.1581 µM) it was 0.101; in assay [1] (first compound 0.5 µM) it was 0.0718; in the assay with Sulindac + Phenformin (first compound 0.08 µM), 0.359; in the assay with Sulindac + Phenformin (first compound 0.253 µM) it was 0.352. The relative viability with Sulindac + Phenformin (first compound 0.8 µM) came to 0.284; with Sulindac + Phenformin (first compound 2.53 µM), 0.323; with Sulindac + Phenformin (first compound 8 µM) it was 0.396; with Sulindac + Tozasertib (first compound 0.08 µM) it was 0.204; with Sulindac + Tozasertib (first compound 0.253 µM) it was 0.192; in the assay with Sulindac + Tozasertib (first compound 0.8 µM), 0.228. Moreover, the values for the relative viability with Sulindac + Tozasertib (first compound 2.53 µM) and in the assay with Sulindac + Tozasertib (first compound 8 µM) were 0.2 and 0.204, respectively.

These data come from the supplement of paper PMC10307832.
